Drawing on ChEMBL document CHEMBL1131940 (Bioorg Med Chem Lett, 1999), this text covers IC50 for seven compounds.

A value given as a limit tells only on which side of the number the result lay.

This experiment deals with Estrogen receptor (Homo sapiens, UniProt Q92731+P03372). To be noted: mcf-7.
Description: In vitro inhibition of estrogen-stimulated MCF-7 cell proliferation
Broadly, the IC50 is the midpoint of a concentration-inhibition curve. Read a low IC50 as greater potency in that assay. For `O=C(c1ccc(NCCN2CCCCC2)cc1)c1c(-c2ccc(O)cc2)sc2cc(O)ccc12`, the IC50 is listed as 2 nM.
As for `O=C(c1ccc(CCCN2CCCCC2)cc1)c1c(-c2ccc(O)cc2)sc2cc(O)ccc12`, the figure is 10 nM; as for `O=C(c1ccc(SCCN2CCCCC2)cc1)c1c(-c2ccc(O)cc2)sc2cc(O)ccc12`, 0.9 nM; as for `O=C(c1ccc(S(=O)(=O)CCN2CCCCC2)cc1)c1c(-c2ccc(O)cc2)sc2cc(O)ccc12`, 30 nM.
As for `COc1ccc(-c2sc3cc(OC)ccc3c2C(=O)c2ccc(S(=O)(=O)CCN3CCCCC3)cc2)cc1`, the figure is > 1000 nM; as for `CN(CCN1CCCCC1)c1ccc(C(=O)c2c(-c3ccc(O)cc3)sc3cc(O)ccc23)cc1`, 10 nM; as for `COc1ccc(-c2sc3cc(OC)ccc3c2C(=O)c2ccc(CCCN3CCCCC3)cc2)cc1`, 1000 nM.
